Reference: patent EP4786486A1, “PEPTIDES FOR TREATING CARDIAC DISEASES” (Universidad Complutense De Madrid, priority 2023, dated 2025)
Where no end group is shown, it is not given here.

Key:
human Kir2.1 channels = assay: IKir2.1 density, whole-cell patch-clamp in CHO cells co-transfected with Kir2.1 and the cDNA encoding the peptide; type: cell-based; settings: CHO cells co-transfected with cDNA SEQ ID NO: 5; vs. cells transfected only with Kir2.1 channels; P<0.05
Experimental: To do this, CHO cells were transfected with the cDNA that encodes the human cardiac channels (Kir2.1) that generate IK1 (Origene, USA) (SEQ ID NO: 22), co-transfecting cells, or not, with the cDNA described in SEQ ID NO: 5. […] The sampling frequency was 4 kHz and the data, filtered at a frequency of 2 kHz, were stored on hard disks for further analysis using the CLAMPFIT application of the pCLAMP software. The current (IKir2.1) was recorded by applying 250 ms pulses from -120 to +20 mV from a holding potential of -60 mV. The density of the same was obtained by normalising the amplitude of IKir2.1 at the end of the pulse by the capacitance of each cell (pA/pF). […] Like in example 2.1, each point represents the mean±SEM of "n" experiments obtained from at least 3 different CHO cell plates. One-way ANOVA followed by the Tukey test. * P<0.05 vs. cells transfected only with Kir2.1 channels.

[1] = test system: dissociated cardiomyocytes from Sham and TAC mice; assay: Capacitance (cell size) of dissociated cardiomyocytes, murine TAC model of HFrEF; type: in vivo; settings: TAC animals treated with DECA-11 (AAV9) vs. untreated TAC animals
Description: (§1) A murine model of CI with reduced ejection fraction (HFrEF) was used to analyse the effect of SEQ ID NO: 3 on the decrease in INa and IK1 caused by electrical remodelling associated with Cl. The mice are subjected to transverse aortic constriction (TAC) with ligation, and pressure overload leads to the occurrence of cardiac hypertrophy and Cl. The mice were produced at the Medical Research Centre of the University of Navarra (CIMA), under the direction of Dr Aránzazu González Miqueo.
(§2) Eight-week-old mice were administered 3.5×10^10 particles of adeno-associated virus type 9 that encoded either the fluorescent reporter td-Tomato (Aav-dt-T) alone, or the reporter and the peptide DECA-11. At 12 weeks of age, an echocardiographic check-up (baseline) was performed and at week 13 they underwent surgery in which the aorta was ligated (TAC animals) or not (Sham animals).
(§3) That same week they were sent to the UCM animal facility. Next, the mice were heparinised and anaesthetised and then sacrificed by cervical dislocation, at a rate of one per day, and a thoracotomy was performed to remove the heart which was mounted through the aorta into a cannula connected to a Langendorff apparatus for enzymatic dissociation of the cardiac myocytes. […]

[2] = test system: dissociated cardiomyocytes from Sham and TAC mice; assay: INa density in dissociated cardiomyocytes, murine TAC model of HFrEF; type: in vivo; settings: pre-treatment with DECA-11 (AAV9)
Description: as §1, §2, §3

[3] = test system: human iPSC-derived cardiomyocytes; assay: INa, IK1 and INaL by patch-clamp in cardiomyocytes infected with adeno-associated virus encoding the peptide; type: cell-based; settings: hiPSC-CM
Description: One-way ANOVA followed by the Tukey test.

[4] = test system: human minimal promoter of the SCN5A gene; assay: Luciferase assay in hEK-293 cells, minimal promoter of SCN5A; type: cell-based; settings: hEK-293, co-transfected with cDNA SEQ ID NO: 5, 48 hours
Experimental: (§4) 48 hours after transfection, luciferase assays were performed using the LightSwitch Luciferase Assay reagent, also from Active Motif, and a Berthold luminometer. All assays were performed in triplicate and each point represents the mean of each technical triplicate.

[5] = test system: human minimal promoter of the KCNJ2 gene; assay: Luciferase assay in hEK-293 cells, minimal promoter of KCNJ2; type: cell-based; settings: hEK-293, co-transfected with cDNA SEQ ID NO: 5, 48 hours
Experimental: as §4

[6] = test system: murine model of CI with reduced ejection fraction (HFrEF); assay: Murine model of CI (transverse aortic constriction): capacitance, INa and IK1 of dissociated cardiomyocytes; type: in vivo, mice
Description: as §1, §2
That same week they were sent to the UCM animal facility. Next, the mice were heparinised and anaesthetised and then sacrificed by cervical dislocation, at a rate of one per day, and a thoracotomy was performed to remove the heart which was mounted through the aorta into a cannula connected to a Langendorff apparatus for enzymatic dissociation of the cardiac myocytes. After removal of the heart, said heart was cannulated through the aorta and placed in a Langendorff apparatus. First, the hearts were perfused with modified Tyrode's solution (composition in mM: 136 NaCI, 4 KCI, 2 MgCl2, 1.8 CaCl2, 10 HEPES, 10 glucose, 3 pyruvic acid and 0.1 thiamine, pH=7.4 with NaOH) bubbled with oxygen and at 37°C for 3-5 minutes. Subsequently, they were perfused for another 8 minutes with the same solution without CaCl2. After 1-2 minutes, the heart stops beating. Next, they were perfused with Tyrode's solution without CaCl2 supplemented with 120 u/ml collagenase type II from Worthington and 0.5 u/ml protease XIV from Sigma. Lastly, the hearts were perfused with a solution called KB of the following composition (mM): 25 KCI, 10 KH2PO4, 2 MgCI2, 0.5 EGTA-K, 5 HEPES-K, 100 glutamic acid, 10 aspartic acid, 20 taurine, 5 creatine and 10 glucose (pH=7.2 with KOH). After this process has been completed, the heart was detached from the cannula and shaken in aliquots of KB solution where the myocytes were disintegrated and stored in the refrigerator for at least one hour before electrophysiological recordings were started.
Capacitance is an indirect and reliable measure of cell size. As can be observed, there was no significant difference in the capacitance of myocytes from Sham animals, had they been infected with Ad-td-Tomato (control) or with Aav-DECA-11.
To record INa in mouse cardiomyocytes, the composition of the external solution was (mM): 4 NaCl, 1 MgCl2, 1 CaCl2, 0.1 CdCl2, 133.5 CsCl, 20 HEPES and 11 glucose (pH=7.35 with CsOH) and the solution that filled the recording micropipette was (mM): 10 NaF, 110 CsF, 20 CsCl, 10 HEPES and 10 EGTA (pH 7.35 with CsOH). All other protocols and conditions were the same as those used for recording INa in human iPSC-derived cardiomyocytes (according to Example 2.3).
As indicated above, IK1 was also recorded in mouse cardiomyocytes from all four groups. […] In fact, the density of IK1 in TAC animals pretreated with DECA-11 is not different from that recorded in Sham animals.

[7] = cardiomyocytes from Sham animals
[8] = infection 48 hours before recording, vs Ad-td-Tomato
[9] = cardiomyocytes from TAC animals

Sequence | density of IKir2.1 (human Kir2.1 channels) | capacitance of myocytes [1] | density of INa ([2]; TAC cardiomyocytes) | density of INa [2, 7] | INaL ([3]; TTX (10 µM) sensitive sustained current as percentage of the current peak) | density of IK1 [3, 8] | density of INa [3, 8] | effect on the minimal promoter of the human SCN5A gene [4] | effect on the minimal promoter of the human KCNJ2 gene [5] | capacitance of myocytes ([6]; TAC animals, vs untreated TAC animals) | IK1 [6, 7] | density of INa [6, 7] | IK1 [6, 9] | density of INa [6, 9]
RFTRESLAAIE (listed as Homo sapiens) [SEQ ID NO: 3, 11-amino acid peptide, amino acids 15-25 of human Nav1.5] | significantly increase | significantly lower | significantly and markedly increased | increased | – | – | – | – | – | – | – | – | – | –
RFTRESLAAIE [DECA-11, RFTRESLAAIE] | – | – | – | – | does not increase INaL | significantly increase the density of INa and IK1 | significantly increase the density of INa and IK1 | no significant effect | protranscriptional effect | significantly lower | significantly increases IK1 | increased the density of INa | significantly increases IK1 | significantly and markedly increased the density of INa
